Assay results as given in the NIST ThermoML archive (doi:10.1021/acs.jced.5b00348).
Values joined by “and” are separate entries in the source; they are usually repeats but may differ in a detail not shown here. Equal values may be shown once.

Details: for vapor or sublimation pressure: Closed cell (Static) method

FC(F)(F)/C=C/Cl [(E)-1-chloro-3,3,3-trifluoroprop-1-ene]
Details | mass density | speed of sound
379.78 K, 201.47 kPa, Gas | – | 156.72 m/s
379.78 K, 201.53 kPa, Gas | – | 156.72 m/s
379.78 K, 407.41 kPa, Gas | – | 151.7 m/s
379.78 K, 407.46 kPa, Gas | – | 151.7 m/s
379.78 K, 407.5 kPa, Gas | – | 151.7 m/s
379.78 K, 407.74 kPa, Gas | – | 151.69 m/s
379.78 K, 407.82 kPa, Gas | – | 151.69 m/s
379.78 K, 407.85 kPa, Gas | – | 151.69 m/s
379.78 K, 568.62 kPa, Gas | – | 147.47 m/s
379.78 K, 796.76 kPa, Gas | – | 140.89 m/s
379.78 K, 796.81 kPa, Gas | – | 140.89 m/s
379.79 K, 407.85 kPa, Gas | – | 151.69 m/s
379.79 K, 796.72 kPa, Gas | – | 140.89 m/s
379.79 K, 959.4 kPa, Gas | – | 135.64 m/s
379.79 K, 959.42 kPa, Gas | – | 135.64 m/s
379.79 K, 959.44 kPa, Gas | – | 135.64 m/s
380 K, 2975.2 kPa, Fluid (supercritical or subcritical phases) | 1043.29 kg/m3 | –
380 K, 3879.4 kPa, Liquid | 1051.51 kg/m3 | –
380.03 K, 547.9 kPa, Gas | 25.032 kg/m3 | –
380.03 K, 548.2 kPa, Gas | 25.047 kg/m3 | –
380.04 K, 428.4 kPa, Gas | 19.095 kg/m3 | –
383.99 K, 1844.2 kPa, Fluid (supercritical or subcritical phases) | 1016.28 kg/m3 | –
383.99 K, 4425 kPa, Fluid (supercritical or subcritical phases) | 1042.8 kg/m3 | –
385 K, 5748.6 kPa, Liquid | 1050.89 kg/m3 | –
389.93 K, 1284.7 kPa, Gas | 67.575 kg/m3 | –
390 K, 7622.7 kPa, Liquid | 1050.32 kg/m3 | –
390.03 K, 572 kPa, Gas | 25.32 kg/m3 | –
390.03 K, 572.2 kPa, Gas | 25.33 kg/m3 | –
390.04 K, 448.1 kPa, Gas | 19.387 kg/m3 | –
391.99 K, 2100.9 kPa, Fluid (supercritical or subcritical phases) | 985.96 kg/m3 | –
391.99 K, 4502.1 kPa, Fluid (supercritical or subcritical phases) | 1015.42 kg/m3 | –
395 K, 2051.4 kPa, Liquid | 971.55 kg/m3 | –
395 K, 4073.9 kPa, Liquid | 999.34 kg/m3 | –
395 K, 6005.8 kPa, Liquid | 1020.09 kg/m3 | –
395 K, 7979.4 kPa, Liquid | 1037.8 kg/m3 | –
395 K, 9495 kPa, Liquid | 1049.74 kg/m3 | –
399.68 K, 81.08 kPa, Gas | – | 163.78 m/s
399.69 K, 81.05 kPa, Gas | – | 163.76 m/s
399.69 K, 81.08 kPa, Gas | – | 163.78 m/s
399.7 K, 81.05 kPa, Gas | – | 163.76 m/s
399.7 K, 200.81 kPa, Gas | – | 161.43 m/s
399.7 K, 200.89 kPa, Gas | – | 161.43 m/s
399.71 K, 200.94 kPa, Gas | – | 161.42 m/s
399.71 K, 201.02 kPa, Gas | – | 161.42 m/s
399.72 K, 579.09 kPa, Gas | – | 153.49 m/s
399.72 K, 579.15 kPa, Gas | – | 153.49 m/s
399.72 K, 579.18 kPa, Gas | – | 153.49 m/s
399.73 K, 1002.2 kPa, Gas | – | 143.33 m/s
399.74 K, 1002.2 kPa, Gas | – | 143.33 m/s
399.74 K, 1416.7 kPa, Gas | – | 131.29 m/s and 131.29 m/s
399.75 K, 1416.7 kPa, Gas | – | 131.29 m/s and 131.29 m/s
399.93 K, 1343.9 kPa, Gas | 67.621 kg/m3 | –
399.94 K, 1613 kPa, Gas | 87.993 kg/m3 | –
399.98 K, 2020.5 kPa, Fluid (supercritical or subcritical phases) | 946.51 kg/m3 | –
399.98 K, 2500.1 kPa, Fluid (supercritical or subcritical phases) | 955.38 kg/m3 | –
399.98 K, 4501.4 kPa, Fluid (supercritical or subcritical phases) | 985.13 kg/m3 | –
400.03 K, 468.2 kPa, Gas | 19.679 kg/m3 | –
400.03 K, 596.5 kPa, Gas | 25.617 kg/m3 and 25.615 kg/m3 | –
404.94 K, 3251 kPa, Fluid (supercritical or subcritical phases) | 944.76 kg/m3 | –
409.92 K, 1401.3 kPa, Gas | 67.63 kg/m3 | –
409.92 K, 1693.1 kPa, Gas | 87.977 kg/m3 | –
409.95 K, 2426 kPa, Fluid (supercritical or subcritical phases) | 899.12 kg/m3 | –
409.95 K, 4566.2 kPa, Fluid (supercritical or subcritical phases) | 944.3 kg/m3 | –
410.01 K, 488.6 kPa, Gas | 19.972 kg/m3 | –
410.01 K, 620.7 kPa, Gas | 25.887 kg/m3 and 25.885 kg/m3 | –
414.94 K, 3540.5 kPa, Fluid (supercritical or subcritical phases) | 898.69 kg/m3 | –
419.55 K, 79.93 kPa, Gas | – | 167.87 m/s
419.56 K, 79.92 kPa, Gas | – | 167.86 m/s
419.56 K, 79.93 kPa, Gas | – | 167.87 m/s
419.56 K, 79.94 kPa, Gas | – | 167.88 m/s
419.56 K, 79.95 kPa, Gas | – | 167.88 m/s and 167.89 m/s
419.56 K, 196.42 kPa, Gas | – | 165.91 m/s
419.56 K, 196.56 kPa, Gas | – | 165.91 m/s and 165.91 m/s
419.57 K, 196.49 kPa, Gas | – | 165.9 m/s and 165.9 m/s
419.57 K, 196.51 kPa, Gas | – | 165.9 m/s
419.57 K, 196.56 kPa, Gas | – | 165.9 m/s
419.57 K, 196.57 kPa, Gas | – | 165.9 m/s
419.57 K, 196.62 kPa, Gas | – | 165.9 m/s
419.57 K, 196.63 kPa, Gas | – | 165.91 m/s
419.58 K, 196.44 kPa, Gas | – | 165.9 m/s
419.58 K, 196.51 kPa, Gas | – | 165.9 m/s
419.58 K, 398.05 kPa, Gas | – | 162.39 m/s
419.58 K, 398.07 kPa, Gas | – | 162.39 m/s
419.58 K, 398.08 kPa, Gas | – | 162.39 m/s
419.59 K, 803.55 kPa, Gas | – | 154.82 m/s
419.59 K, 803.59 kPa, Gas | – | 154.82 m/s
419.59 K, 803.61 kPa, Gas | – | 154.82 m/s
419.59 K, 1212.4 kPa, Gas | – | 146.32 m/s
419.6 K, 1212.4 kPa, Gas | – | 146.32 m/s
419.6 K, 1723.5 kPa, Gas | – | 133.88 m/s and 133.89 m/s
419.61 K, 2072 kPa, Gas | – | 123.58 m/s
419.61 K, 2072.1 kPa, Gas | – | 123.58 m/s
419.62 K, 2072.1 kPa, Gas | – | 123.58 m/s
419.63 K, 2072.3 kPa, Gas | – | 123.59 m/s
419.65 K, 2072.5 kPa, Gas | – | 123.6 m/s
419.67 K, 2072.7 kPa, Gas | – | 123.61 m/s
419.68 K, 2072.8 kPa, Gas | – | 123.62 m/s
419.69 K, 2072.8 kPa, Gas | – | 123.62 m/s
419.69 K, 2072.9 kPa, Gas | – | 123.63 m/s
419.9 K, 1457.6 kPa, Gas | 67.627 kg/m3 | –
419.92 K, 1771.2 kPa, Gas | 87.947 kg/m3 | –
419.94 K, 4667.5 kPa, Fluid (supercritical or subcritical phases) | 898.26 kg/m3 | –
419.95 K, 2831.8 kPa, Fluid (supercritical or subcritical phases) | 841.35 kg/m3 | –
419.99 K, 510 kPa, Gas | 20.295 kg/m3 | –
420 K, 508.9 kPa, Gas | 20.248 kg/m3 | –
420 K, 645.1 kPa, Gas | 26.148 kg/m3 and 26.149 kg/m3 | –
424.94 K, 3746.2 kPa, Fluid (supercritical or subcritical phases) | 841 kg/m3 | –
429.9 K, 1513.1 kPa, Gas | 67.627 kg/m3 | –
429.9 K, 1847.8 kPa, Gas | 87.931 kg/m3 | –
429.94 K, 3475.7 kPa, Fluid (supercritical or subcritical phases) | 782.51 kg/m3 | –
429.94 K, 4675.4 kPa, Fluid (supercritical or subcritical phases) | 840.63 kg/m3 | –
430 K, 530.5 kPa, Gas | 20.558 kg/m3 | –
430 K, 669.6 kPa, Gas | 26.403 kg/m3 | –
434.94 K, 4229.4 kPa, Fluid (supercritical or subcritical phases) | 782.14 kg/m3 | –
439.89 K, 1922.8 kPa, Gas | 87.898 kg/m3 | –
439.9 K, 1568.8 kPa, Gas | 67.676 kg/m3 | –
439.95 K, 1137.4 kPa, Gas | 46.158 kg/m3 | –
439.95 K, 1568.5 kPa, Gas | 67.645 kg/m3 | –
440 K, 255.4 kPa, Gas | 9.339 kg/m3 | –
440 K, 550.9 kPa, Gas | 20.806 kg/m3 | –
440 K, 551.6 kPa, Gas | 20.832 kg/m3 | –
440 K, 694.2 kPa, Gas | 26.651 kg/m3 | –
440 K, 694.3 kPa, Gas | 26.653 kg/m3 | –
443.94 K, 475.9 kPa, Fluid (supercritical or subcritical phases) | 17.642 kg/m3 | –
443.94 K, 547.2 kPa, Fluid (supercritical or subcritical phases) | 20.44 kg/m3 | –
443.94 K, 1352.4 kPa, Fluid (supercritical or subcritical phases) | 55.612 kg/m3 | –
443.94 K, 1768.1 kPa, Fluid (supercritical or subcritical phases) | 77.205 kg/m3 | –
443.94 K, 2074.3 kPa, Fluid (supercritical or subcritical phases) | 95.28 kg/m3 | –
443.94 K, 2390.8 kPa, Fluid (supercritical or subcritical phases) | 116.63 kg/m3 | –
443.94 K, 2690.9 kPa, Fluid (supercritical or subcritical phases) | 140.42 kg/m3 | –
443.94 K, 2893.8 kPa, Fluid (supercritical or subcritical phases) | 159.35 kg/m3 | –
443.94 K, 3102.5 kPa, Fluid (supercritical or subcritical phases) | 182.38 kg/m3 | –
443.94 K, 3197.9 kPa, Fluid (supercritical or subcritical phases) | 194.61 kg/m3 | –
443.94 K, 3199.8 kPa, Fluid (supercritical or subcritical phases) | 194.61 kg/m3 | –
443.94 K, 3703.8 kPa, Fluid (supercritical or subcritical phases) | 306.77 kg/m3 | –
443.94 K, 3908.6 kPa, Fluid (supercritical or subcritical phases) | 504.42 kg/m3 | –
443.95 K, 3858 kPa, Fluid (supercritical or subcritical phases) | 426.27 kg/m3 | –
443.95 K, 4009.4 kPa, Fluid (supercritical or subcritical phases) | 593.8 kg/m3 | –
443.95 K, 4514.9 kPa, Fluid (supercritical or subcritical phases) | 704.98 kg/m3 | –
443.95 K, 5618.8 kPa, Fluid (supercritical or subcritical phases) | 781.53 kg/m3 | –

Liquid
Details | vapor or sublimation pressure [kPa]
380.03 K | 1207.4
390.04 K | 1480.7
400.04 K | 1798.9
410.03 K | 2166.7
415.03 K | 2371
420 K | 2589.3
424.98 K | 2823.8
429.91 K | 3073.2
429.98 K | 3076.8
434.91 K | 3346
434.97 K | 3349.8
435.91 K | 3403.5
437.91 K | 3521
